Measurements: ChEMBL document CHEMBL4765295, “Synthesis, pharmacological profile and 2D-QSAR studies of curcumin-amino acid conjugates as potential drug candidates” (Eur J Med Chem, 2020)
“And” between values parts separate entries of the source, which are not always exact repeats. Equal entries are not always repeated.

Tested on: Mus musculus
Experiment: Analgesic activity in albino mouse assessed protection against acetic acid-induced abdominal writhing at 10 mg/kg, ip pretreated for 1 hr followed by acetic acid challenge and measured starting 5 mins post acetic acid challenge for 10 mins relative to control (reference value: 0 %)
Type: functional
Conditions: time 75 min, 1.25 h
COc1cc(/C=C/C(=O)/C=C(O)/C=C/c2ccc(OC(=O)[C@H](CCSC)NC(=O)OCC3c4ccccc4-c4ccccc43)c(OC)c2)ccc1OC(=O)[C@H](CCSC)NC(=O)OCC1c2ccccc2-c2ccccc21 gave an Activity of 61.8%.

Tested on: Mus musculus
Experiment: Analgesic activity in albino mouse assessed as forepaw licking/jumping latency time at 10 mg/kg, ip measured after 30 mins by hot plate test (reference value: 5.02 +/- 0.09 sec)
Type: functional
Conditions: 0.5 h
COc1cc(/C=C/C(=O)/C=C(O)/C=C/c2ccc(OC(=O)[C@H](CCSC)NC(=O)OCC3c4ccccc4-c4ccccc43)c(OC)c2)ccc1OC(=O)[C@H](CCSC)NC(=O)OCC1c2ccccc2-c2ccccc21 showed a Time of 6.82 s.

Tested on: Rattus norvegicus
Experiment: Antiinflammatory activity in Wistar rat model of carrageenan-induced paw edema assessed as reduction in thickness of paw edema at 10 mg/kg, ip pretreated for 1 hr followed by carrageenan challenge and measured after 1 hr (reference value: 2.41 +/-0.05 mm)
Type: functional
Conditions: time 1 hr after carrageenan
COc1cc(/C=C/C(=O)/C=C(O)/C=C/c2ccc(OC(=O)[C@H](CCSC)NC(=O)OCC3c4ccccc4-c4ccccc43)c(OC)c2)ccc1OC(=O)[C@H](CCSC)NC(=O)OCC1c2ccccc2-c2ccccc21 gave an Activity of 1.3 mm.

Tested on: Candida albicans
Experiment: Antifungal activity against Candida albicans incubated for 18 to 24 hrs by CLSI method
Type: functional
Conditions: time 18-24 hrs
With COc1cc(/C=C/C(=O)/C=C(O)/C=C/c2ccc(OC(=O)[C@H](CCSC)NC(=O)OCC3c4ccccc4-c4ccccc43)c(OC)c2)ccc1OC(=O)[C@H](CCSC)NC(=O)OCC1c2ccccc2-c2ccccc21 the MIC was 0.5 µg/mL and 0.465 µM.

Tested on: not listed separately
Experiment: Toxicity in albino mouse assessed as induction of toxic symptoms at 50 to 100 mg/kg, ip measured after 24 hrs
Type: organism-based
Conditions: in vivo, dose 50-100 mg/kg
With COc1cc(/C=C/C(=O)/C=C(O)/C=C/c2ccc(OC(=O)[C@H](CCSC)NC(=O)OCC3c4ccccc4-c4ccccc43)c(OC)c2)ccc1OC(=O)[C@H](CCSC)NC(=O)OCC1c2ccccc2-c2ccccc21 the Activity was “Non-Toxic”.

Tested on: not listed separately
Experiment: Ulcerogenic activity in fasted albino mouse assessed as incidence of gastric ulceration at 10 mg/kg, po for 3 days (reference value: 0 %)
Type: toxicity, organism-based
Conditions: in vivo, 72 h, time 3 day
For COc1cc(/C=C/C(=O)/C=C(O)/C=C/c2ccc(OC(=O)[C@H](CCSC)NC(=O)OCC3c4ccccc4-c4ccccc43)c(OC)c2)ccc1OC(=O)[C@H](CCSC)NC(=O)OCC1c2ccccc2-c2ccccc21, the Activity was 0%.

Tested on: Peritoneal macrophage
Experiment: Antiinflammatory activity in […] mouse Peritoneal macrophages assessed as inhibition of LPS-induced NO production at 10 uM preincubated for 1 hr followed by LPS stimulation measured after 24 hrs by Griess method relative to control (reference value: 0.0 %)
Type: functional
Parameters: scale not given: the % may be the effect or the level left
Conditions: time 25 hrs
Work on COc1cc(/C=C/C(=O)/C=C(O)/C=C/c2ccc(OC(=O)[C@H](CCSC)NC(=O)OCC3c4ccccc4-c4ccccc43)c(OC)c2)ccc1OC(=O)[C@H](CCSC)NC(=O)OCC1c2ccccc2-c2ccccc21 yielded an Activity of 47.91%.

Tested on: Mus musculus
Experiment: Analgesic activity in albino mouse assessed as forepaw licking/jumping latency time at 10 mg/kg, ip measured after 120 mins by hot plate test (reference value: 2.62 +/- 0.06 sec)
Type: functional
Conditions: 2 h
Compound COc1cc(/C=C/C(=O)/C=C(O)/C=C/c2ccc(OC(=O)[C@H](CCSC)NC(=O)OCC3c4ccccc4-c4ccccc43)c(OC)c2)ccc1OC(=O)[C@H](CCSC)NC(=O)OCC1c2ccccc2-c2ccccc21 has a Time of 2.98 s.

Tested on: Rattus norvegicus
Experiment: Antiinflammatory activity in Wistar rat model of carrageenan-induced paw edema assessed as reduction in thickness of paw edema at 10 mg/kg, ip pretreated for 1 hr followed by carrageenan challenge and measured after 3 hrs (reference value: 1.79 +/-0.07 mm)
Type: functional
Conditions: time 4 hrs
COc1cc(/C=C/C(=O)/C=C(O)/C=C/c2ccc(OC(=O)[C@H](CCSC)NC(=O)OCC3c4ccccc4-c4ccccc43)c(OC)c2)ccc1OC(=O)[C@H](CCSC)NC(=O)OCC1c2ccccc2-c2ccccc21 showed an Activity of 0.45 mm.

Tested on: Salmonella typhimurium
Experiment: Antibacterial activity against Salmonella typhimurium ATCC 19430 incubated for 18 hrs by agar dilution assay
Type: functional, Salmonella enterica subsp. enterica serovar Typhimurium
Conditions: Salmonella enterica
With COc1cc(/C=C/C(=O)/C=C(O)/C=C/c2ccc(OC(=O)[C@H](CCSC)NC(=O)OCC3c4ccccc4-c4ccccc43)c(OC)c2)ccc1OC(=O)[C@H](CCSC)NC(=O)OCC1c2ccccc2-c2ccccc21 the MIC was 2 µg/mL and 1.86 µM.

Tested on: Pseudomonas aeruginosa
Experiment: Antibacterial activity against Pseudomonas aeruginosa ATCC 27853 incubated for 18 hrs by agar dilution assay
Type: functional
Conditions: not given
In the case of COc1cc(/C=C/C(=O)/C=C(O)/C=C/c2ccc(OC(=O)[C@H](CCSC)NC(=O)OCC3c4ccccc4-c4ccccc43)c(OC)c2)ccc1OC(=O)[C@H](CCSC)NC(=O)OCC1c2ccccc2-c2ccccc21, the MIC is reported as 2 µg/mL and 1.86 µM.

Tested on: Rattus norvegicus
Experiment: Anti-inflammatory activity in Wistar rat assessed as inhibition of carrageenan-induced paw edema at 10 mg/kg, ip pretreated for 1 hr followed by carrageenan challenge and measured after 4 hr relative to indomethacin
Type: functional
Conditions: time 5 hrs
In the case of COc1cc(/C=C/C(=O)/C=C(O)/C=C/c2ccc(OC(=O)[C@H](CCSC)NC(=O)OCC3c4ccccc4-c4ccccc43)c(OC)c2)ccc1OC(=O)[C@H](CCSC)NC(=O)OCC1c2ccccc2-c2ccccc21, the inhibition in vivo at 10 mg/kg is reported as 113%.

Tested on: not listed separately
Experiment: Ulcerogenic activity in fasted albino mouse assessed as average number of ulcers in gastric mucosa at 10 mg/kg, po for 3 days (reference value: 0)
Type: toxicity, organism-based
Conditions: in vivo, 72 h, time 3 day
With COc1cc(/C=C/C(=O)/C=C(O)/C=C/c2ccc(OC(=O)[C@H](CCSC)NC(=O)OCC3c4ccccc4-c4ccccc43)c(OC)c2)ccc1OC(=O)[C@H](CCSC)NC(=O)OCC1c2ccccc2-c2ccccc21 the Activity was 0.

Tested on: Mus musculus
Experiment: Analgesic activity in albino mouse assessed as protection at 10 mg/kg, ip measured after 120 mins by hot plate test relative to indomethacin
Type: functional
Conditions: 2 h
COc1cc(/C=C/C(=O)/C=C(O)/C=C/c2ccc(OC(=O)[C@H](CCSC)NC(=O)OCC3c4ccccc4-c4ccccc43)c(OC)c2)ccc1OC(=O)[C@H](CCSC)NC(=O)OCC1c2ccccc2-c2ccccc21 showed an Activity of 32.6%.

Tested on: Rattus norvegicus
Experiment: Anti-inflammatory activity in Wistar rat assessed as inhibition of carrageenan-induced paw edema at 10 mg/kg, ip pretreated for 1 hr followed by carrageenan challenge and measured after 24 hr relative to control (reference value: 0.00 +/-0.3 %)
Type: functional
Conditions: time 25 hrs
Compound COc1cc(/C=C/C(=O)/C=C(O)/C=C/c2ccc(OC(=O)[C@H](CCSC)NC(=O)OCC3c4ccccc4-c4ccccc43)c(OC)c2)ccc1OC(=O)[C@H](CCSC)NC(=O)OCC1c2ccccc2-c2ccccc21 has an inhibition in vivo at 10 mg/kg of 23%.

Tested on: Peritoneal macrophage
Experiment: Antiinflammatory activity in […] mouse Peritoneal macrophages assessed as reduction in LPS-induced NO production by measuring reduction in stimulation index at 10 uM preincubated for 1 hr followed by LPS stimulation measured after 24 hrs by Griess method (reference value: 27.31 +/- 2.56 uM)
Type: functional
Conditions: time 25 hrs
With COc1cc(/C=C/C(=O)/C=C(O)/C=C/c2ccc(OC(=O)[C@H](CCSC)NC(=O)OCC3c4ccccc4-c4ccccc43)c(OC)c2)ccc1OC(=O)[C@H](CCSC)NC(=O)OCC1c2ccccc2-c2ccccc21 the Activity was 14.23 µM.

Tested on: Splenocyte
Experiment: Immunomodulatory activity in Swiss albino mouse splenocytes assessed as cell viability at 10 uM by measuring stimulation index incubated for 72 hrs in presence of mitogenic stimulus phytohaemagglutinin by MTT assay (reference value: 1.00 +/- 0.24)
Type: functional
Conditions: not given
For COc1cc(/C=C/C(=O)/C=C(O)/C=C/c2ccc(OC(=O)[C@H](CCSC)NC(=O)OCC3c4ccccc4-c4ccccc43)c(OC)c2)ccc1OC(=O)[C@H](CCSC)NC(=O)OCC1c2ccccc2-c2ccccc21, the Activity_index was 1.07.

Tested on: Rattus norvegicus
Experiment: Anti-inflammatory activity in Wistar rat assessed as inhibition of carrageenan-induced paw edema at 10 mg/kg, ip pretreated for 1 hr followed by carrageenan challenge and measured after 2 hr relative to control (reference value: 0.00 +/-0.03 %)
Type: functional
Conditions: time 3 hrs
With COc1cc(/C=C/C(=O)/C=C(O)/C=C/c2ccc(OC(=O)[C@H](CCSC)NC(=O)OCC3c4ccccc4-c4ccccc43)c(OC)c2)ccc1OC(=O)[C@H](CCSC)NC(=O)OCC1c2ccccc2-c2ccccc21 the inhibition in vivo at 10 mg/kg was 73%.

Tested on: Mus musculus
Experiment: Analgesic activity in albino mouse assessed as forepaw licking/jumping latency time at 10 mg/kg, ip measured after 90 mins by hot plate test (reference value: 2.72 +/- 0.01 sec)
Type: functional
Conditions: 1.5 h
Work on COc1cc(/C=C/C(=O)/C=C(O)/C=C/c2ccc(OC(=O)[C@H](CCSC)NC(=O)OCC3c4ccccc4-c4ccccc43)c(OC)c2)ccc1OC(=O)[C@H](CCSC)NC(=O)OCC1c2ccccc2-c2ccccc21 yielded a Time of 3.38 s.
